Reference: patent US11285130B2, “Treatment of mitochondrial diseases” (Khondrion IP B.V., priority 2017, dated 2022)

Columns and labels:
[1] = ECG post-hoc analysis, MAD study; type: in vivo, human; parameters: QTcF: largest median baseline increase / QTcF: largest individual increase: unit not given here
Description: The changes from baseline (pre-dose assessment on Day 1) for body weight, physical examinations, vital signs, ECG-variables and clinical laboratory variables were determined for each time point. Treatment-emergent laboratory and ECG abnormalities as well as adverse events were monitored throughout the study, up to 28 Days after the last study drug intake.
The goal of this post-hoc optimization study was to repeat the ECG assessment with an highly automated computer-assisted approach where in addition to the re-evaluation of standard intervals (PR, QRS and QT intervals), a set of parameters describing repolarization morphology were considered. The morphology indices were the TpTe interval (interval from the T wave apex to the end of the T wave), the TpTe/QT index (the ratio between the TpTe interval and the QT interval), Tamp (the amplitude in microvolt units of the T wave) and TSym (an index of repolarization morphology based on the symmetry of the T wave).
ECGs were digitally recorded using a Schiller AT104 ECG machine (500 Hz, 1 μV). Cardiac interval measurements were performed on the Global Superimposed Median Beat (GSMB), a methodology that allows measurements that consider each of the 12 individual median beats. This measurement methodology ensures that the PR, QRS, and QT interval are measured from the earliest onset in any lead to the latest deflection in any lead. Cardiologist overview of the computer-based measurements is based on the superimposed (overlapped) display of the individual median beats, to assure measurements are performed at the earliest onset of any viable lead to the latest offset of any viable lead.
The RR interval used for heart-rate correction of the QT interval (QTcB) was based on all the beats in the ten second recording.
Other cardiac parameters were computed from the 12-lead vector magnitude VM (e.g. the square root of the sum of squares at each digital sample) computed from the individual median beats. On the VM lead, the apex of the T wave is placed and used to compute the TpTe interval (using the end of the T wave from the GSMB) and the T wave amplitude (height in microvolt of the VM T peak from the isoelectric line). […] T wave symmetry index was computed using a proprietary approach based on Gaussian Mesa function modeling (GMF) of the repolarization waves (Badilini F et al. J Electrocardiol 2008, 41:588-594). Briefly, the ascending and descending phases of the VM T wave are modeled by two independent half-Gaussian curves (see FIG. 3). The standard deviations of these functions (σ1 and σ2) and indicators of the ascending/descending speed and their ratio is an index of symmetry (TSym=σ1/σ2; TSym=1 for a perfectly symmetric T wave, TSym<1 for slow-ascending/fast-descending T waves, T>1 for fast-ascending/slow-decending T waves).
For the pre-dose (baseline) ECGs, all parameters per time point were calculated as the averages of the triplicate ECGs. Computation of QTcB and QTcF was performed using the RR interval averaged from the total ECG acquisition duration (10 seconds) and in the case of the triplicate ECGs is based on the average QT and average HR of the replicate ECGs.
The over-reading cardiologist provided a clinical interpretation for each ECG at each time point. Each ECG was classified as Normal, Abnormal Clinically Insignificant (ACI), or Abnormal Clinically Significant (ACS). Results of this post-hoc analysis were used for an exposure-response evaluation for the changes in the electrophysiological parameters as a function of the concentration of KH176.

hERG potassium channel = hERG potassium channel (Homo sapiens, UniProt Q12809); assay: hERG blocking; type: biochemical
Chain of hERG potassium channel (Q12809 whole entry): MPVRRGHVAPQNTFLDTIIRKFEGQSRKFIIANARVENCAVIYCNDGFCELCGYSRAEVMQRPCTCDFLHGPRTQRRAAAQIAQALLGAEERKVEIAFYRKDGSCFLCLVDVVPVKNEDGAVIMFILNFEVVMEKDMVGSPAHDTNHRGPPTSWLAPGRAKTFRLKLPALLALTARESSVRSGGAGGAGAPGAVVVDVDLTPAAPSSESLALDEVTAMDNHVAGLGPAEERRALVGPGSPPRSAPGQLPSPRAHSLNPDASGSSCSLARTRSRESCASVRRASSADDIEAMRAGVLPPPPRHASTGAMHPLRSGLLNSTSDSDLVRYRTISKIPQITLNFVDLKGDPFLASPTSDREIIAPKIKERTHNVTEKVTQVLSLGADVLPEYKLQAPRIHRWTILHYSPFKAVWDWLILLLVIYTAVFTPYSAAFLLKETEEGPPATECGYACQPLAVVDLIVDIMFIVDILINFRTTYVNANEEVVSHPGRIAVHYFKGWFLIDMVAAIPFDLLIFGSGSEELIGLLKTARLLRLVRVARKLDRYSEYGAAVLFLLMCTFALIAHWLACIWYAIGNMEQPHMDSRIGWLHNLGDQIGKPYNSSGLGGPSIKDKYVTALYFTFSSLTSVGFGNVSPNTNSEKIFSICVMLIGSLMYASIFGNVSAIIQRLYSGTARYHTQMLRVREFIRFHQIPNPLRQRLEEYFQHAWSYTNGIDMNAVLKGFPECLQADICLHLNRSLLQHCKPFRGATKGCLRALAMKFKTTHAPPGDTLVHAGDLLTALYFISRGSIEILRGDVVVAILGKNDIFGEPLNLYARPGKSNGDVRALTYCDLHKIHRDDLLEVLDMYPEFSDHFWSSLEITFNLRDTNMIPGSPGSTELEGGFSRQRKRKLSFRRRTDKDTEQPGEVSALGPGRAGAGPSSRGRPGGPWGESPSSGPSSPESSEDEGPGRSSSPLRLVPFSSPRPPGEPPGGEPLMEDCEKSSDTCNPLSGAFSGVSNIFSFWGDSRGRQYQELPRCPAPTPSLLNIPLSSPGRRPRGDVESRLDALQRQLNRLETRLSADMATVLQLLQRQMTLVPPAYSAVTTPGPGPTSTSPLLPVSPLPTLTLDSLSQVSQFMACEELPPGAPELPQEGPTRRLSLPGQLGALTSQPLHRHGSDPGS

For `Cc1c(C)c2c(c(C)c1O)CC[C@@](C)(C(=O)N[C@@H]1CCCNC1)O2.Cl` [KH176, (S)-6-hydroxy-2,5,7,8-tetramethyl-N-((R)-piperidin-3-yl)chroman-2-carboxamide hydrochloride], the “effect on QTcF” value ([1]; MAD 100 mg b.i.d.) was “no effect”, the “PR interval: largest median baseline increase” value ([1]; MAD 200 mg) was 12 ms and the “QTcF: largest individual increase” value ([1]; MAD 200 mg) was 28.3. For the same molecule, the “QTcF: largest median baseline increase” value ([1]; MAD 200 mg) was 13.3, the “T-wave symmetry index: largest individual increase” value ([1]; MAD 200 mg) was 0.6 and the “T-wave symmetry index: largest median baseline increase” value ([1]; MAD 200 mg) was 0.45. For the same molecule, the “TpTe interval: largest individual increase” value ([1]; MAD 200 mg) was 46 ms, the “TpTe interval: largest median baseline increase” value ([1]; MAD 200 mg) was 24 ms and the “QTcF, median maximum change from baseline” value ([1]; MAD 200 mg b.i.d., Day 5) was 13 ms. For the same molecule, the “PR interval: largest median baseline increase” value ([1]; MAD 400 mg) was 19 ms, the “QRS interval: largest individual increase” value ([1]; MAD 400 mg) was 15.3 ms and the “QRS interval: largest median baseline increase” value ([1]; MAD 400 mg) was 9.7 ms. The “QTcF: largest individual increase” value ([1]; MAD 400 mg) was 43.7, the “QTcF: largest median baseline increase” value ([1]; MAD 400 mg) was 29.2 and the “T-wave symmetry index: largest individual increase” value ([1]; MAD 400 mg) was 0.99. The “T-wave symmetry index: largest median baseline increase” value ([1]; MAD 400 mg) was 0.63, the “TpTe interval: largest individual increase” value ([1]; MAD 400 mg) was 62.7 ms and the “TpTe interval: largest median baseline increase” value ([1]; MAD 400 mg) was 42.3 ms. For the same molecule, the “QTcF, median maximum change from baseline at trough” value ([1]; MAD 400 mg b.i.d., Day 6) was 29 ms and the “IC50 of hERG blocking relative to the Cmax for the highest dose” value (hERG potassium channel) was 3 times.
